{
  "source": "ChEMBL document CHEMBL1201862",
  "about": "“PubChem BioAssay data set” (2004)",
  "key": {"[1]": {"target": "T1, Sentrin-specific protease 1 (Homo sapiens, UniProt Q9P0U3)", "T1 sequence (Q9P0U3 whole entry)": "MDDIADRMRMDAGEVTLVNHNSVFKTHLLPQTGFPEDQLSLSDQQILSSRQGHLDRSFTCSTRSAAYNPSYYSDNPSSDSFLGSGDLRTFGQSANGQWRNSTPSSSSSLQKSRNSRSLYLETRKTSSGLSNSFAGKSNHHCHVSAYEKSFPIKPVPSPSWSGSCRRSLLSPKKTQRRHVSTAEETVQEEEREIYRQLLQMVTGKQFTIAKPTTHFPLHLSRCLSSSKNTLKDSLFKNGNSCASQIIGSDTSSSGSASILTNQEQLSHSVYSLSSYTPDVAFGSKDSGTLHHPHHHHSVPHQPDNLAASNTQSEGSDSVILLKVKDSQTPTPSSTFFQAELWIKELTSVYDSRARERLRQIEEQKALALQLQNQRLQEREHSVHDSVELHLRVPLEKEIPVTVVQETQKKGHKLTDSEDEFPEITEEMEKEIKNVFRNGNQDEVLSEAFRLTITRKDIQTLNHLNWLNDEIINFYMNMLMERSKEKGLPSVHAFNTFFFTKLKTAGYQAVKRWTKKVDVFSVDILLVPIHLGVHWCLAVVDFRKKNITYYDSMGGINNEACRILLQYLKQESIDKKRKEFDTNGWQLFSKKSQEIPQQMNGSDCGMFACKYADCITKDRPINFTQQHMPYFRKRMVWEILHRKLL", "assay": "potency of human SENP1 inhibitors, dose response, biochemical, kinetic FRET (AID 651697)", "assay_type": "functional", "conditions": "read-out: IC50_Mean"}, "[2]": {"target": "T1, Sentrin-specific protease 1", "assay": "Dose response confirmation of small molecule inhibitors of the catalytic domain of the SUMO protease, SENP1 in a FRET assay.", "assay_type": "functional", "conditions": "read-out: IC50_Mean"}, "[3]": {"target": "T2, Corticotropin-releasing factor receptor 2/Corticotropin-releasing factor-binding protein (Homo sapiens, UniProt P24387+Q13324)", "T2 sequence (Q13324 whole entry)": "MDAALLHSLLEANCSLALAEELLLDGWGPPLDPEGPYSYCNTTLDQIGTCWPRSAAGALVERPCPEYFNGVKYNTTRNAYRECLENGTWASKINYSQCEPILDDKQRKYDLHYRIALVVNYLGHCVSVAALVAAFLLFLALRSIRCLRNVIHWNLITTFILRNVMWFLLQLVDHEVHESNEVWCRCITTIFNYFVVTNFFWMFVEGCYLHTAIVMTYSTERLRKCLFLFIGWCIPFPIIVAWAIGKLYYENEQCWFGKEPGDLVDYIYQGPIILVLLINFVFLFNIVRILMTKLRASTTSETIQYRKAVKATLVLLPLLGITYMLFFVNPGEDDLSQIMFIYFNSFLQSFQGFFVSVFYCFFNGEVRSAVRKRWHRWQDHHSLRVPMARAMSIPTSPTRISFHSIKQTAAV", "T2 sequence (P24387 whole entry)": "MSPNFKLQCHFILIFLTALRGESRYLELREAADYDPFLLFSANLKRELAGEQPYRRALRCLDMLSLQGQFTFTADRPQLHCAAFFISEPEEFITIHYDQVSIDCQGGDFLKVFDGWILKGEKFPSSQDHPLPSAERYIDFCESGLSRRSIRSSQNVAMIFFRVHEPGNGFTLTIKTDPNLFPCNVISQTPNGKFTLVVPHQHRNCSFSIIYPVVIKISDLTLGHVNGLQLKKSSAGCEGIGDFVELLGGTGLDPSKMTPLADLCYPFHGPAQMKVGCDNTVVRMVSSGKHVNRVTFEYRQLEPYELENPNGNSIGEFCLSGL", "assay": "Dose Response confirmation of uHTS hits for small molecule antagonists of the CRF-binding protein and CRF-R2 receptor complex.", "assay_type": "functional", "conditions": "read-out: IC50_Mean"}, "[4]": {"target": "T2, Corticotropin-releasing factor receptor 2/Corticotropin-releasing factor-binding protein", "assay": "activators of CRF receptor 2 with binding protein – uHTS hits, confirmation (AID 602473)", "assay_type": "functional", "conditions": "read-out: EC50_Mean"}, "[5]": {"assay": "CRF-BP/CRF-R2 complex antagonists, dose response, cell-based, uHTS hits, 384-well (AID 651639)", "assay_type": "functional, Homo sapiens", "conditions": "read-out: IC50_Mean"}, "[6]": {"target": "T3, Rac GTPase-activating protein 1 (Homo sapiens, UniProt Q9H0H5)", "T3 sequence (Q9H0H5 whole entry)": "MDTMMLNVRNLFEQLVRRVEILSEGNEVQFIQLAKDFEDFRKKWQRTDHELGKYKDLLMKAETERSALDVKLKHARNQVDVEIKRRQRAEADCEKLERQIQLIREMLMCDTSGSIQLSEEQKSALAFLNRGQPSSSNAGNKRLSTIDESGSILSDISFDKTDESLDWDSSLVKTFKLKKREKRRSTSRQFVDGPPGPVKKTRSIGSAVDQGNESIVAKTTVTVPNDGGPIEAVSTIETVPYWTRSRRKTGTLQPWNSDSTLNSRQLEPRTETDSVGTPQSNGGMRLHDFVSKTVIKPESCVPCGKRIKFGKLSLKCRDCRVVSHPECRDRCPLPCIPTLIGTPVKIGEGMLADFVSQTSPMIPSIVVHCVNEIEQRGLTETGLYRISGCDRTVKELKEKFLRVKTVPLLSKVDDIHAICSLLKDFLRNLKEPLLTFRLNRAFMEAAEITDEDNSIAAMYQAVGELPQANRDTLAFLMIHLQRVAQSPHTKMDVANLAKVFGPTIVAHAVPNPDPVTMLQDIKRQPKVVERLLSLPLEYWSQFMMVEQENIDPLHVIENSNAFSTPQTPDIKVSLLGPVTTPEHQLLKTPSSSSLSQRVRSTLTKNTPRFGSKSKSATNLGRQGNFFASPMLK", "assay": "MgcRacGAP GTPase-activating activity inhibitors, confirmation, biochemical, ADP Hunter fluorescence, primary and confirmatory (AID 624330)", "assay_type": "functional"}, "[7]": {"assay": "Luminescence Cell-Based Dose Retest to Confirm Inhibitors of Cancer Stem Cells. [Related pubchem assays (depositor defined):AID2717, AID2721]", "assay_type": "functional", "conditions": "Homo sapiens"}, "[8]": {"assay": "cytotoxicity in HMLE control line with eGFP shRNA, dose response, counter-screen for HMLE_sh_ECad selective toxicity project, cell-based, HMLE_sh_eGFP, luminescence (AID 463074);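 note: HMLE human mammary epithelial cells expressing control shRNA against eGFP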", "assay_type": "functional, Homo sapiens"}, "[9]": {"target": "T4, Methionyl-tRNA synthetase, putative (Trypanosoma brucei brucei, UniProt Q38C91)", "T4 sequence (Q38C91 whole entry)": "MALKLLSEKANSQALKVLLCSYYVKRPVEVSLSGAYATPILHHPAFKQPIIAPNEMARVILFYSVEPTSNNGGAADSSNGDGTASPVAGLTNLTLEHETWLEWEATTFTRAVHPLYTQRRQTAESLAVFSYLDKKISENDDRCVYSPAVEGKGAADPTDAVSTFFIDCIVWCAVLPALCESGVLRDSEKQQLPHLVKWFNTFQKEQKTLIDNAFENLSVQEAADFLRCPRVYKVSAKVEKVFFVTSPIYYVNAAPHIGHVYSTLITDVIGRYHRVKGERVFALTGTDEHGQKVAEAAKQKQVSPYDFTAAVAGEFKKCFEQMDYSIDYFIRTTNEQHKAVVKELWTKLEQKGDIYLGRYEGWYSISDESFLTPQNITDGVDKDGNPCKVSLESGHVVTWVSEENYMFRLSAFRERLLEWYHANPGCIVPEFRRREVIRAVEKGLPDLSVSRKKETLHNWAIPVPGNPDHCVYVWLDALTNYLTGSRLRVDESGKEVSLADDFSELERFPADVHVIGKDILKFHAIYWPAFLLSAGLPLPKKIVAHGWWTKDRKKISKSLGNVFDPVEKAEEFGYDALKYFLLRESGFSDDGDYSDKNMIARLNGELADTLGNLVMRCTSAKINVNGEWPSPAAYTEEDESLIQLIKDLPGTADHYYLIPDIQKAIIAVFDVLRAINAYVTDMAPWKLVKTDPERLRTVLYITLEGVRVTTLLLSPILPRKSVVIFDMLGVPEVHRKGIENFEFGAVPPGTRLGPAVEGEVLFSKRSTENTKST", "assay_type": "functional, Trypanosoma brucei brucei strain 927/4 GUTat10.1"}, "[10]": {"assay": "Counterscreen for inhibitors of Trypanosoma brucei methionyl tRNA synthetase (MetRS): Luminescence-based cell-based high throughput dose response assay to identify compounds that are cytotoxic to Jurkat human T lymphocyte cells.", "assay_type": "functional"}, "[11]": {"target": "T4, Methionyl-tRNA synthetase, putative", "assay_type": "functional, Trypanosoma brucei brucei strain 927/4 GUTat10.1", "remark": "listed apart in the source"}, "[12]": {"target": "Fructose-bisphosphate aldolase (Mycobacterium tuberculosis, UniProt P9WQA3)", "sequence (P9WQA3 whole entry)": "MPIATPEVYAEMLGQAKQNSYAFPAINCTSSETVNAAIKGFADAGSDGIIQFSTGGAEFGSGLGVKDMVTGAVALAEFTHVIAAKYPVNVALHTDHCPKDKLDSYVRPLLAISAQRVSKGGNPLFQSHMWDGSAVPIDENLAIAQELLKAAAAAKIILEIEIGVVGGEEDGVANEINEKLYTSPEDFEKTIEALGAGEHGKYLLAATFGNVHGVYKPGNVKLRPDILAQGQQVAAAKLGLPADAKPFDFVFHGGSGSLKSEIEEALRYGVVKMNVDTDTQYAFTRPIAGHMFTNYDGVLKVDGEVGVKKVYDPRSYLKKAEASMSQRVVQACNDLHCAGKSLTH", "assay": "Fluorescence-based biochemical high throughput dose response assay for inhibitors of the fructose-bisphosphate aldolase (FBA) of M. tuberculosis.", "assay_type": "functional"}, "Mu-type opioid receptor": {"target": "Mu-type opioid receptor (Homo sapiens, UniProt P35372)", "sequence (P35372 whole entry)": "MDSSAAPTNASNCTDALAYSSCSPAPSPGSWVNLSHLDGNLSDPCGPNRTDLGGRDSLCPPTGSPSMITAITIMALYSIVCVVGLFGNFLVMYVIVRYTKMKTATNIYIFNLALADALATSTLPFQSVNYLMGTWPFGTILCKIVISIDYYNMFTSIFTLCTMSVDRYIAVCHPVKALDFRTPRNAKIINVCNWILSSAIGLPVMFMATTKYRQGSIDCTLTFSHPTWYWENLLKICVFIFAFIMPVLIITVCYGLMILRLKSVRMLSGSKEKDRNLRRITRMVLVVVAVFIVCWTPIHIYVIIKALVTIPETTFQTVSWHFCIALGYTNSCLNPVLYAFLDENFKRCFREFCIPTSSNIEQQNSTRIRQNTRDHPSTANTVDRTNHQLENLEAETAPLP", "assay_type": "functional, cell-based"}},
  "note": "Where a name gives a salt, the structure may show the parent alone. Calls of active or inactive are those of the source.",
  "data": [
    {"smiles": "CN(C)CCNc1cccc2sc3ccc(O)cc3c(=O)c12", "values": [
      {"measurement": "IC50", "setting": "[1]", "value": "37.8 µM (inactive)"},
      {"measurement": "IC50", "setting": "[2]", "value": "26 µM (inactive)"}
    ]},
    {"smiles": "CCOc1cc(/C=N/NC(=O)c2ccccc2OCc2ccc(F)cc2)ccc1O", "values": [
      {"measurement": "IC50", "setting": "[3]", "value": "4.05 µM (active)"},
      {"measurement": "EC50", "setting": "[4]", "value": "> 53 µM (inactive)"},
      {"measurement": "IC50", "setting": "[5]", "value": "> 20 µM (inactive)"},
      {"measurement": "IC50", "setting": "[6]", "value": "78.5 µM (active)"}
    ]},
    {"smiles": "O=C(COc1ccc(Cl)cc1Cl)N/N=C/c1ccc[nH]1", "values": [
      {"measurement": "AC50", "setting": "[7]", "value": "1.92 µM (active)"},
      {"measurement": "AC50", "setting": "[8]", "value": "20.7 µM (active)"},
      {"measurement": "IC50", "setting": "[9]", "value": "13.2 µM (inactive)"},
      {"measurement": "IC50", "setting": "[10]", "value": "22.2 µM (inactive)"},
      {"measurement": "IC50", "setting": "[11]", "value": "22.4 µM (inactive)"}
    ]},
    {"smiles": "Cc1c(C)c2cc(Cl)c(OCC(=O)NCCCN3CCCC3=O)cc2oc1=O", "values": [
      {"measurement": "IC50", "setting": "[12]", "value": "3.71 µM (active)"}
    ]},
    {"smiles": "COc1ccc(NC(=O)C2(C)Cc3c(-c4ccc(N(C)C)cc4)ccnc3O2)cc1OC", "note": "(centres undefined)", "values": [
      {"measurement": "IC50", "setting": "[12]", "value": "0.731 µM (active)"}
    ]},
    {"smiles": "CC(CCc1ccc(O)cc1)NCCc1ccc(O)c(O)c1", "note": "(centres undefined) [DOBUTAMINE HYDROCHLORIDE]", "values": [
      {"measurement": "EC50", "setting": "Mu-type opioid receptor", "value": "92.5 µM (inactive)"}
    ]}
  ]
}
